Laboratory results reported in ChEMBL document CHEMBL1126052, “2-Carboxytetrahydroquinolines. Conformational and stereochemical requirements for antagonism of the glycine site on the NMDA receptor” (J Med Chem, 1992).

target: Glutamate NMDA receptor; assay: Concentration required to inhibit 50% of the specific binding of [3H]glycine to NMDA receptor prepared from rat cerebral cortex and hippocampus; format: tissue-based

Q: For `O=C1CC(C(=O)O)Nc2cccc(Cl)c21` (configuration not stated), which IC50 is on record?
A: 6.96 µM

Q: For `O=C1CC(C(=O)O)Nc2cc(I)cc(Cl)c21` (configuration not stated), which IC50 is on record?
A: 3.84 µM

Q: With `COC(=O)[C@H]1C[C@@H](C(=O)O)Nc2cccc(Cl)c21` as the compound, how does the IC50 read?
A: 26.1 µM

Q: For `O=C(O)C1CCc2c(Cl)cc(Cl)cc2N1` (configuration not stated), which IC50 is on record?
A: 6.39 µM

Q: `COC(=O)[C@H]1C[C@H](C(=O)O)Nc2cc(Br)cc(Br)c21` was tested. Which IC50 did it give?
A: 2.89 µM

Q: For `O=C1CC(C(=O)O)Nc2cc(Cl)cc(I)c21` (configuration not stated), which IC50 is on record?
A: 0.36 µM

Q: With `COC(=O)[C@H]1C[C@@H](C(=O)O)Nc2cc(Cl)cc(I)c21` as the compound, how does the IC50 read?
A: 4.18 µM

Q: `COC(=O)C[C@H]1C[C@H](C(=O)O)Nc2cc(Cl)cc(Cl)c21` was tested. Which IC50 did it give?
A: 0.603 µM

Q: With `COC(=O)[C@H]1C[C@H](C(=O)O)Nc2cc(Cl)cc(I)c21` as the compound, how does the IC50 read?
A: 3.09 µM

Q: For `COC(=O)[C@H]1C[C@@H](C(=O)O)Nc2cc(Cl)cc(Cl)c21`, which IC50 is on record?
A: 1.21 µM

Q: `Cc1cc(C)c2c(c1)NC(C(=O)O)CC2=O` (configuration not stated) was tested. Which IC50 did it give?
A: 1.86 µM

Q: For `NC(=O)[C@H]1C[C@@H](C(=O)O)Nc2cc(Cl)cc(Cl)c21`, which IC50 is on record?
A: 3.44 µM

Q: For `O=C1CC(C(=O)O)Nc2cc(Cl)ccc21` (configuration not stated), which IC50 is on record?
A: 2.36 µM

Q: For `O=C(OCc1ccccc1)[C@H]1C[C@H](C(=O)O)Nc2cc(Cl)cc(Cl)c21`, which IC50 is on record?
A: 1.05 µM

Q: Which IC50 does the source give for `O=C1CC(C(=O)O)Nc2ccccc21` (configuration not stated) here?
A: > 100 µM

Q: Which IC50 does the source give for `COC(=O)[C@H]1C[C@H](C(=O)O)Nc2cc(Cl)cc(Cl)c21` here?
A: 2.47 µM

Q: How did the IC50 turn out when `COC(=O)[C@H]1C[C@H](C(=O)O)Nc2cc(Cl)ccc21` was run?
A: 16.9 µM

Q: How did the IC50 turn out when `COC(=O)[C@H]1C[C@@H](C(=O)O)Nc2cc(Cl)ccc21` was run?
A: 5.02 µM

Q: `Cc1cc(C)c2c(c1)N[C@@H](C(=O)O)[C@@H](C)C2=O` was tested. Which IC50 did it give?
A: 13.7 µM

Q: For `Cc1cc(C)c2c(c1)N[C@@H](C(=O)O)[C@H](C)C2=O`, which IC50 is on record?
A: > 100 µM

Q: With `NC(=O)[C@H]1C[C@H](C(=O)O)Nc2cc(Cl)cc(Cl)c21` as the compound, how does the IC50 read?
A: 0.72 µM

Q: Which IC50 does the source give for `O=C(O)C[C@H]1C[C@H](C(=O)O)Nc2cc(Cl)cc(Cl)c21` here?
A: 0.134 µM

Q: With `O=C(O)[C@@H]1C[C@H](C(=O)O)c2c(Cl)cc(Cl)cc2N1` as the compound, how does the IC50 read?
A: 31.4 µM

Q: Which IC50 does the source give for `Cc1noc(C[C@H]2C[C@H](C(=O)O)Nc3cc(Cl)cc(Cl)c32)n1` here?
A: 2.53 µM

Q: With `O=C(O)C[C@H]1C[C@@H](C(=O)O)Nc2cc(Cl)cc(Cl)c21` as the compound, how does the IC50 read?
A: 15 µM

Q: `O=C(O)c1cc(C(=O)O)c2c(Cl)cc(Cl)cc2n1` was tested. Which IC50 did it give?
A: > 100 µM

Q: Which IC50 does the source give for `O=C(O)[C@H]1C[C@H](C(=O)O)Nc2cc(Cl)cc(Cl)c21` here?
A: 20 µM

Q: With `COC(=O)[C@H]1C[C@@H](C(=O)O)Nc2cc(Br)cc(Br)c21` as the compound, how does the IC50 read?
A: 2.05 µM

Q: For `COC(=O)[C@H]1C[C@H](C(=O)O)Nc2cccc(Cl)c21`, which IC50 is on record?
A: 176 µM

Q: With `O=C1CC(C(=O)O)Nc2cc(Br)cc(Br)c21` (configuration not stated) as the compound, how does the IC50 read?
A: 1.29 µM

Q: With `O=C(O)[C@@H]1C[C@H](C(=O)OCc2ccccc2)c2c(Cl)cc(Cl)cc2N1` as the compound, how does the IC50 read?
A: 2.33 µM

Q: How did the IC50 turn out when `O=C1CC(C(=O)O)Nc2cc(Cl)cc(Cl)c21` (configuration not stated) was run?
A: 2.31 µM
